The record followed here is patent US20100010035A1, “Novel Dual Action Receptors Antagonists (Dara) at the Ati and Eta Receptors” (priority 2006, published 2010).

SMILES strings stand for the structures.

The target in one assay is T1, human ETA receptor (Homo sapiens, UniProt P25101).
T1 construct: CHO cell stably over-expressing the full length human ETA receptor; expressed in transfected cells
T1 sequence (P25101 21-427): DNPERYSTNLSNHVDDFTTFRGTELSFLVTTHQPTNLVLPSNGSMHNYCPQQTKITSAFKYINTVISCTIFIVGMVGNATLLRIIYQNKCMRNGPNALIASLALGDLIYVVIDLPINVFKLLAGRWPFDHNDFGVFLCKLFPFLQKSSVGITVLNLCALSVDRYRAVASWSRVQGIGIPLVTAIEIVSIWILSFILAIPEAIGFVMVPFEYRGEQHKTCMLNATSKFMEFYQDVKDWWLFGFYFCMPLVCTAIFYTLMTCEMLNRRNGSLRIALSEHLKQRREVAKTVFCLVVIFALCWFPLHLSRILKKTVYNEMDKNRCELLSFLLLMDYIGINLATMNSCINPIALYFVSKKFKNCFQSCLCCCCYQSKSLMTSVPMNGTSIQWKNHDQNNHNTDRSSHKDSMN
Put plainly: ETA functional assay (FLIPR Ca efflux, Endothelin-1 at EC80). In kind it is cell-based. The settings on record: CHO cells over-expressing full length human ETA receptor; Endothelin-1 as agonist at EC80. On the procedure: (§1) CHO cell stably over-expressing the full length human ETA receptor was cultured in DMEM (Gibco) with 10% FCS (Hyclone) and selection maintained using 0.5 mg/ml G418 (Gibco). Cell at 70% confluence were trypsnised, resuspended in media and counted. 20,000 cells/well were plated into black polystyrene 384-well plates with transparent bottoms and allowed 16 hours to adhere. The cells were loaded with Flou-4 (TEFLABS, USA) dye in BSS (Gibco) for 1 hour and then washed in HBSS and 0.6 μl of diluted compounds in DMSO added to the cells in 30 μl of HBSS in Multimek liquid handling system (Beckman, USA). The cells were then placed in the Fluorometric Imaging Plate Readers (FLIPR, Molecular Devices, USA) and 20 μl of Endothelin-1 peptide as agonist in HBSS (at EC80) was added in the instrument.
(§2) The Ca efflux was followed for 2 mins and the maximum height of the peak was measured at various compound concentrations and plotted according to the equation
(§3) and IC50 estimated wherein A is the bottom plateau of the curve i.e. the final minimum y value B is the top of the plateau of the curve i.e. the final maximum y value C is the x value at the middle of the curve. This represents the log EC50 value when A+B=100 D is the slope factor. x is the original known x values. y is the original known y values.

Another assay addresses T2, human AT1 receptor (Homo sapiens, UniProt P30556).
T2 construct: CHO cell stably over-expressing the full length human AT1 receptor; expressed in transfected cells
T2 sequence (P30556 1-359): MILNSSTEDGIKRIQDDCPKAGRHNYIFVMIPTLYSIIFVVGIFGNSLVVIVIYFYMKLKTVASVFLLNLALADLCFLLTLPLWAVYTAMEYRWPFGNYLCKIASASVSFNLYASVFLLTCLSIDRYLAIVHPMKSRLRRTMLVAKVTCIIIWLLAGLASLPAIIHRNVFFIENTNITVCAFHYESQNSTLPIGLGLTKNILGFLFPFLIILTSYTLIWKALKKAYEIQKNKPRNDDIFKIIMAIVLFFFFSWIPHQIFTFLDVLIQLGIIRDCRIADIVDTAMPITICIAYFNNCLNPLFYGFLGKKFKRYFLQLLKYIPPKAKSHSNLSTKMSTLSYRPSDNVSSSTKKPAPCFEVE
The experiment in a line: AT1 functional assay (FLIPR Ca efflux, Angiotensin-II at EC80). The settings on record: CHO cells over-expressing full length human AT1 receptor; Angiotensin-II as agonist at EC80. The format is cell-based. How it is done:
as §1, with “human AT1” for “human ETA”, “in HBSS” for “in BSS”, “30 μd” for “30 μl”, “of Angiotensin-II” for “of Endothelin-1”, “agonist (at EC80)” for “agonist”, “HBSS” for “HBSS (at EC80)”
as §2, §3

For `COCc1cc(Cn2nc(-c3cccs3)c3c(C)nc(C)cc32)ccc1-c1cc(C)sc1S(=O)(=O)Nc1noc(C)c1C` [Example 21, 3-[4-(4,6-dimethyl-3-thiophen-2-yl-pyrazolo[4,3-c]pyridin-1-ylmethyl)-2-methoxymethyl-phenyl]-5-methyl-thiophene-2-sulfonic acid (4,5-dimethyl-isoxazol-3-yl)-amide], the values for the IC50 on human ETA receptor and at human AT1 receptor were 464 nM and 7.47 nM, respectively.
In the same order, the values of `CCc1cc2c(c(Oc3ccccc3)cc(=O)n2Cc2ccc(-c3ccsc3S(=O)(=O)Nc3noc(C)c3C)cc2)c(CC)n1` [Example 8, 3-[4-(5,7-diethyl-2-oxo-4-phenoxy-2H-[1,6]naphthyridin-1-ylmethyl)-phenyl]-thiophene-2-sulphonic acid(4,5-dimethyl-isoxazol-3-yl)-amide] are 2870 nM and 20.8 nM.
Turning to `CCc1cc2c(ccc(=O)n2Cc2ccc(-c3cc(C)sc3S(=O)(=O)Nc3noc(C)c3C)cc2)c(CC)n1` [Example 7, 3-[4-(5,7-diethyl-2-oxo-2H-[1,6]naphthyridin-1-yl-methyl)-phenyl]-5-methyl-thiophene-2-sulphonic acid-(4,5 dimethyl-isoxazol-3-yl)-amide], the IC50 (usually the concentration that gives 50% inhibition) at human ETA receptor stood at 814 nM; on human AT1 receptor, 24.6 nM.
Taken in the same sequence, the figures for `CCc1cc2c(c(C)n1)c(-c1ccccc1)nn2Cc1ccc(-c2ccsc2S(=O)(=O)Nc2ncc(C)nc2OC)cc1` [Example 34] were 7040 nM and 189 nM.
